The record followed here is PubChem BioAssay (NCI).

Test systems include T-47D breast; UACC-62 melanoma; 786-0 renal; SK-MEL-28 melanoma; SF-295 CNS; MDA-MB-231 breast; SN12C renal; PC-3 prostate; SK-MEL-2 melanoma; COLO 205 colon.
Common to all, as to experiment: DTP human tumour cell line panel, 48 h

The term TGI denotes the concentration giving total growth inhibition. Low values mean more potent growth arrest, high ones less potent growth arrest.

Several values for one entry are separate records, joined by “and”; a condition that tells them apart may be missing. Equal values may be shown once.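 Method: 48-hour compound exposure of cells in 96-well plates, five concentrations, linear interpolation of endpoints. TGI denotes the concentration required for complete inhibition of growth.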

`Cc1cc(Nc2ccc(NS(C)(=O)=O)cc2)c2c(ccc3nccc32)[nH]1`: the TGI with T-47D breast amounted to 19.5 µM; in the assay with UACC-62 melanoma, 30.7 µM; in the assay on 786-0 renal, 45.2 µM; in the assay with SK-MEL-28 melanoma, 33.4 µM; in the assay with SF-295 CNS, 60.5 µM; in the assay on MDA-MB-231 breast it was 33.4 µM. Further, the TGI in the assay on SN12C renal stood at 38.9 µM; with PC-3 prostate, 39.7 µM; in the assay with SK-MEL-2 melanoma, 30.5 µM; in the assay on COLO 205 colon, 35.8 µM.

For `COc1ccc(NC(C(N)=O)c2cc3cc(Br)ccc3nc2Cl)cc1` (stereo not given), the TGI in the assay with T-47D breast, with UACC-62 melanoma, in the assay on 786-0 renal, in the assay with SK-MEL-28 melanoma, with SF-295 CNS and in the assay with MDA-MB-231 breast was over 100 µM in each case. Further, the TGI in the assay with SN12C renal, with PC-3 prostate, in the assay with SK-MEL-2 melanoma and in the assay on COLO 205 colon was over 100 µM each time.

As for `CCSc1nc(=S)n(-c2ccccc2)c(C)c1C(C)=O`, the total growth inhibition concentration (TGI) in the assay with T-47D breast, in the assay on UACC-62 melanoma, with 786-0 renal, with SK-MEL-28 melanoma, in the assay with SF-295 CNS and in the assay on MDA-MB-231 breast was over 100 µM in each case. For the same molecule, the TGI in the assay on SN12C renal, in the assay on PC-3 prostate, with SK-MEL-2 melanoma and in the assay with COLO 205 colon was over 100 µM throughout.

On to `C/C=C(\C)C(=O)O[C@@H]1CC(C)(C)CC2C3=CCC4[C@]56CC[C@](O)(OC5)C(C)(C)C6CC[C@@]4(C)C3(C)CC[C@]21C(=O)O` (stereo not given in full), for which the TGI with T-47D breast, in the assay with UACC-62 melanoma, in the assay with 786-0 renal, in the assay on SK-MEL-28 melanoma, in the assay with SF-295 CNS and with MDA-MB-231 breast was over 100 µM throughout. In addition, the TGI with SN12C renal, with PC-3 prostate, in the assay on SK-MEL-2 melanoma and with COLO 205 colon was over 100 µM in each case.

Turning to `c1ccc(Nc2nn3c(CCCCCCCCc4nnc5sc(Nc6ccccc6)nn45)nnc3s2)cc1`, the TGI in the assay with T-47D breast is 67.1 µM; with UACC-62 melanoma, over 100 µM; in the assay on 786-0 renal, 79.5 µM; in the assay on SK-MEL-28 melanoma, over 100 µM; in the assay with SF-295 CNS, 71.8 µM; in the assay with MDA-MB-231 breast it was over 100 µM. The TGI with SN12C renal was over 100 µM; with PC-3 prostate, over 100 µM; with SK-MEL-2 melanoma it was over 100 µM; in the assay on COLO 205 colon, 42.8 µM.

With `NC(=O)CC(N)C(=O)NC(Cc1ccccc1)C(=O)NC(Cc1ccccc1)NC(=O)C(Cc1c[nH]c2ccccc12)C(=O)O` (stereo not given), the TGI with T-47D breast, with UACC-62 melanoma, in the assay with 786-0 renal, with SK-MEL-28 melanoma, with SF-295 CNS and with MDA-MB-231 breast was over 100 µM each time. Moreover, the TGI with SN12C renal, in the assay with PC-3 prostate, in the assay with SK-MEL-2 melanoma and in the assay with COLO 205 colon was over 100 µM in each case.

Turning to `CCOC(=O)/C=C(\C(=O)OCC)n1cc(Cl)c(=O)n(CC(=O)OCC)c1=O`, the TGI is 4.12 µM with T-47D breast; 24.6 µM in the assay with UACC-62 melanoma; 3.14 µM with 786-0 renal; 36.5 µM in the assay on SK-MEL-28 melanoma; over 61.1 µM with SF-295 CNS; 30.3 µM with MDA-MB-231 breast. Besides, the TGI in the assay on SN12C renal is 28.8 µM; in the assay with PC-3 prostate it was 27.8 µM; with SK-MEL-2 melanoma, 32 µM; in the assay with COLO 205 colon, 1.86 µM.

`COC(=O)c1c(C)cccc1C1CN=NC12Cc1cc(C)cc(C)c1C2=O` (stereo not given): the TGI in the assay with T-47D breast is over 100 µM; with UACC-62 melanoma, over 100 µM; in the assay on 786-0 renal, over 100 µM; with SK-MEL-28 melanoma, over 100 µM; in the assay on SF-295 CNS it was over 100 µM; in the assay with MDA-MB-231 breast it was 98.2 µM. The TGI with SN12C renal is over 100 µM; in the assay with PC-3 prostate, over 100 µM; with SK-MEL-2 melanoma, over 100 µM; in the assay on COLO 205 colon, 31.9 µM.

For `Cc1ccc(N=Nc2c(O)ccc3cc(S(=O)(=O)O)ccc23)cc1`, the concentration for total growth inhibition (TGI) in the assay with T-47D breast was over 100 µM; in the assay with UACC-62 melanoma it was over 100 µM; with 786-0 renal it was > 100 µM and 25.2 µM; with SK-MEL-28 melanoma it was over 100 µM; in the assay on SF-295 CNS, over 100 µM; with MDA-MB-231 breast, > 100 µM and 45.7 µM. The TGI with SN12C renal, in the assay on PC-3 prostate, in the assay with SK-MEL-2 melanoma and in the assay with COLO 205 colon was over 100 µM each time.

On to `O=C(C/C(=N/O)C(F)(F)F)c1cccs1`, for which the TGI in the assay on T-47D breast, in the assay on UACC-62 melanoma, with 786-0 renal, in the assay on SK-MEL-28 melanoma, in the assay on SF-295 CNS and in the assay on MDA-MB-231 breast was over 100 µM throughout. Further, the TGI in the assay with SN12C renal, with PC-3 prostate, with SK-MEL-2 melanoma and with COLO 205 colon was over 100 µM each time.

`N/C(=N\Nc1ccc(Cl)cc1)c1cnccn1`: the TGI with T-47D breast, with UACC-62 melanoma, with 786-0 renal, in the assay with SK-MEL-28 melanoma, in the assay on SF-295 CNS and in the assay with MDA-MB-231 breast was over 100 µM in each case. Moreover, the TGI in the assay on SN12C renal was over 100 µM; in the assay with PC-3 prostate, over 100 µM; in the assay with SK-MEL-2 melanoma it was over 100 µM; with COLO 205 colon, 40.1 µM.

For `O=C(OC1CN2CCC1CC2)N(c1ccccc1)c1ccccc1` (stereo not given), the TGI in the assay on T-47D breast, with UACC-62 melanoma, in the assay with 786-0 renal, in the assay on SK-MEL-28 melanoma, with SF-295 CNS and with MDA-MB-231 breast was over 100 µM throughout. Moreover, the TGI in the assay with SN12C renal, with PC-3 prostate, in the assay with SK-MEL-2 melanoma and in the assay with COLO 205 colon was over 100 µM in each case.
